In patent US9149038B2, “4-amino-6-(heterocyclic)picolinates and 6-amino-2-(heterocyclic)pyrimidine-4-carboxylates and their use as herbicides” (Dow AgroSciences LLC, priority 2013, dated 2015):
Like-named read-outs stand apart in the source and are kept apart here.

Experiments:
[1] = system: Key Broadleaf Weed and Crop Species; assay: Post-Emergent Test II: postemergent herbicidal activity, visual rating after 14 d (Table 7); format: in vivo; conditions: post-emergence, 336 h; for pest or weed control at 35 g/ha: 35 g ai/ha; for pest or weed control at 70 g/ha: 70 g ai/ha; for pest or weed control at 140 g/ha: 140 g ai/ha
Outline: (§1)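 Greenhouse-grown plants at the first or second true leaf stage (7-21 d, ~15 h photoperiod, 23-29° C day) were sprayed with compound in acetone/DMSO-based aqueous spray containing crop oil concentrate and Triton X-155 at 187 L/ha. Injury versus untreated plants was rated visually after 14 d on a 0-100 scale.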

[2] = system: Key Grass and Sedge Weeds as well as Grass Crops; assay: Post-Emergent Test II: postemergent herbicidal activity, visual rating after 14 d (Table 8); format: in vivo; conditions: post-emergence, 336 h; for pest or weed control at 35 g/ha: 35 g ai/ha; for pest or weed control at 70 g/ha: 70 g ai/ha; for pest or weed control at 140 g/ha: 140 g ai/ha
Outline: as §1

[3] = ABUTH: velvetleaf (Abutilon theophrasti), read-out: Visual Growth Reduction (%) 14 Days After Application ABUTH
[4] = AMARE: redroot pigweed (Amaranthus retroflexus), read-out: Visual Growth Reduction (%) 14 Days After Application AMARE
[5] = BRSNN: oilseed rape, canola (Brassica napus), read-out: Visual Growth Reduction (%) 14 Days After Application BRSNN
[6] = CHEAL: lambsquarters (Chenopodium album), read-out: Visual Growth Reduction (%) 14 Days After Application CHEAL
[7] = EPHHL: wild poinsettia (Euphorbia heterophylla), read-out: Visual Growth Reduction (%) 14 Days After Application EPHHL
[8] = HELAN: sunflower (Helianthus annuus), read-out: Visual Growth Reduction (%) 14 Days After Application HELAN
[9] = barnyardgrass (Echinochloa crus-galli), read-out: Visual Growth Reduction (%) 14 Days After Application, ECHCG
[10] = giant foxtail (Setaria faberi), read-out: Visual Growth Reduction (%) 14 Days After Application, SETFA
[11] = rice (Oryza sativa), read-out: Visual Growth Reduction (%) 14 Days After Application, ORYSA
[12] = wheat, spring (Triticum aestivum), read-out: Visual Growth Reduction (%) 14 Days After Application, TRZAS
[13] = yellow nutsedge (Cyperus esculentus), read-out: Visual Growth Reduction (%) 14 Days After Application, CYPES
[14] = lambsquarters (Chenopodium album), read-out: Visual Growth Reduction (%) 14 Days After Application CHEAL
[15] = oilseed rape, canola (Brassica napus), read-out: Visual Growth Reduction (%) 14 Days After Application BRSNN
[16] = redroot pigweed (Amaranthus retroflexus), read-out: Visual Growth Reduction (%) 14 Days After Application AMARE
[17] = sunflower (Helianthus annuus), read-out: Visual Growth Reduction (%) 14 Days After Application HELAN
[18] = velvetleaf (Abutilon theophrasti), read-out: Visual Growth Reduction (%) 14 Days After Application ABUTH
[19] = wild poinsettia (Euphorbia heterophylla), read-out: Visual Growth Reduction (%) 14 Days After Application EPHHL
[20] = barnyardgrass (Echinochloa crus-galli), read-out: Visual Growth Reduction (%) 14 Days After Application ECHCG
[21] = giant foxtail (Setaria faberi), read-out: Visual Growth Reduction (%) 14 Days After Application SETFA
[22] = rice (Oryza sativa), read-out: Visual Growth Reduction (%) 14 Days After Application ORYSA
[23] = wheat, spring (Triticum aestivum), read-out: Visual Growth Reduction (%) 14 Days After Application TRZAS
[24] = yellow nutsedge (Cyperus esculentus), read-out: Visual Growth Reduction (%) 14 Days After Application CYPES

Compound COC(=O)c1nc(-c2cccc3c2OC(F)(F)O3)cc(N)c1Cl [Compound 84] has a pest or weed control at 35 g/ha [1, 3] of 45 to 59%, a pest or weed control at 70 g/ha [1, 3] of 60 to 74% and a pest or weed control at 140 g/ha [1, 3] of 75 to 84%. The pest or weed control at 35 g/ha [1, 4] was 95 to 100%, the pest or weed control at 70 g/ha [1, 4] was 95 to 100% and the pest or weed control at 140 g/ha [1, 4] was 95 to 100%. It also gave a pest or weed control at 35 g/ha [1, 5] of 60 to 74%, a pest or weed control at 70 g/ha [1, 5] of 75 to 84% and a pest or weed control at 140 g/ha [1, 5] of 85 to 94%. It also gave a pest or weed control at 35 g/ha [1, 6] of 85 to 94%, a pest or weed control at 70 g/ha [1, 6] of 85 to 94% and a pest or weed control at 140 g/ha [1, 6] of 95 to 100%. It also gave a pest or weed control at 35 g/ha [1, 7] of 0 to 29%, a pest or weed control at 70 g/ha [1, 7] of 0 to 29% and a pest or weed control at 140 g/ha [1, 7] of 0 to 29%. For the same compound, the pest or weed control at 35 g/ha [1, 8] was 0 to 29%, the pest or weed control at 70 g/ha [1, 8] was 30 to 44% and the pest or weed control at 140 g/ha [1, 8] was 30 to 44%. For the same compound, the pest or weed control at 35 g/ha [2, 9] was 0 to 29%, the pest or weed control at 70 g/ha [2, 9] was 0 to 29% and the pest or weed control at 140 g/ha [2, 9] was 0 to 29%. It also gave a pest or weed control at 35 g/ha [2, 10] of 0 to 29%, a pest or weed control at 70 g/ha [2, 10] of 0 to 29% and a pest or weed control at 140 g/ha [2, 10] of 0 to 29%. It also gave a pest or weed control at 35 g/ha [2, 11] of 0 to 29%, a pest or weed control at 70 g/ha [2, 11] of 0 to 29% and a pest or weed control at 140 g/ha [2, 11] of 0 to 29%. It also gave a pest or weed control at 35 g/ha [2, 12] of 0 to 29%, a pest or weed control at 70 g/ha [2, 12] of 0 to 29% and a pest or weed control at 140 g/ha [2, 12] of 0 to 29%. The pest or weed control at 35 g/ha [2, 13] was 0 to 29%, the pest or weed control at 70 g/ha [2, 13] was 0 to 29% and the pest or weed control at 140 g/ha [2, 13] was 0 to 29%.

With Nc1c(F)c(-c2cccc3c2OC(F)(F)O3)nc(C(=O)O)c1Cl [Compound 74] the pest or weed control at 35 g/ha [1, 14] was 85 to 94%, the pest or weed control at 70 g/ha [1, 14] was 95 to 100% and the pest or weed control at 140 g/ha [1, 14] was 95 to 100%. The pest or weed control at 35 g/ha [1, 15] was 75 to 84%, the pest or weed control at 70 g/ha [1, 15] was 85 to 94% and the pest or weed control at 140 g/ha [1, 15] was 95 to 100%. The pest or weed control at 35 g/ha [1, 16] was 95 to 100%, the pest or weed control at 70 g/ha [1, 16] was 95 to 100% and the pest or weed control at 140 g/ha [1, 16] was 95 to 100%. For the same compound, the pest or weed control at 35 g/ha [1, 17] was 75 to 84%, the pest or weed control at 70 g/ha [1, 17] was 75 to 84% and the pest or weed control at 140 g/ha [1, 17] was 85 to 94%. For the same compound, the pest or weed control at 35 g/ha [1, 18] was 0 to 29%, the pest or weed control at 70 g/ha [1, 18] was 30 to 44% and the pest or weed control at 140 g/ha [1, 18] was 45 to 59%. For the same compound, the pest or weed control at 35 g/ha [1, 19] was 0 to 29%, the pest or weed control at 70 g/ha [1, 19] was 0 to 29% and the pest or weed control at 140 g/ha [1, 19] was 0 to 29%. It also gave a pest or weed control at 35 g/ha [2, 20] of 0 to 29%, a pest or weed control at 70 g/ha [2, 20] of 0 to 29% and a pest or weed control at 140 g/ha [2, 20] of 0 to 29%. The pest or weed control at 35 g/ha [2, 21] was 0 to 29%, the pest or weed control at 70 g/ha [2, 21] was 0 to 29% and the pest or weed control at 140 g/ha [2, 21] was 0 to 29%. The pest or weed control at 35 g/ha [2, 22] was 0 to 29%, the pest or weed control at 70 g/ha [2, 22] was 0 to 29% and the pest or weed control at 140 g/ha [2, 22] was 0 to 29%. It also gave a pest or weed control at 35 g/ha [2, 23] of 0 to 29%, a pest or weed control at 70 g/ha [2, 23] of 0 to 29% and a pest or weed control at 140 g/ha [2, 23] of 0 to 29%. The pest or weed control at 35 g/ha [2, 24] was 0 to 29%, the pest or weed control at 70 g/ha [2, 24] was 0 to 29% and the pest or weed control at 140 g/ha [2, 24] was 0 to 29%.
